The target of assay [1] is MAGL (recombinant wild-type) (Homo sapiens (Human), UniProt Q99685). The assay is described as follows: 4-NPA assay: MAGL inhibitory activity by hydrolysis of 4-nitrophenylacetate (absorbance at 405 nm). In kind it is biochemical. Particulars: measured in 4-NPA assay (footnote [a]); 1 nM MAGL, 300 μM 4-nitrophenylacetate. On the procedure: This assay is hereinafter abbreviated “4-NPA assay”.
The plate was shaked for 1 min at 2000 rpm (Variomag Teleshake) and then incubated for 15 min at RT. […] The final concentrations in the assay were 1 nM MAGL and 300 μM 4-Nitrophenylacetate. […] A second measurement was then done after incubation for 80 min at RT. From the two measurements, the slope was calculated by subtracting the first from the second measurement.

Another assay has as its target MAGL (Homo sapiens (Human), UniProt Q99685). The assay is described as follows: 2-AG assay: MAGL inhibitory activity by hydrolysis of 2-arachidonoylglycerol to arachidonic acid (mass spectrometry). Conditions: measured in 2-AG assay (footnote [b]); 8 μM 2-arachidonoylglycerol. In kind it is biochemical. Here is the method:
Alternatively, compounds were profiled for MAGL inhibitory activity by determining the enzymatic activity by following the hydrolysis of the natural substrate 2-arachidonoylglycerol resulting in arachidonic acid, which can be followed by mass spectrometry. This assay is hereinafter abbreviated “2-AG assay”.
A C18 SPE cartridge (G9205A) was used in an acetonitrile/water liquid setup. […] The activity of the compounds was calculated based on the ratio of intensities [arachidonic acid/d8-arachidonic acid].

The results in this text go back to patent publication US11802133B2, “Heterocyclic compounds as monoacylglycerol lipase inhibitors” (Hoffmann-La Roche Inc., priority 2018, dated 2023).

Molecules are shown by their SMILES.

Sequence of MAGL (Q99685 whole entry, species assumed): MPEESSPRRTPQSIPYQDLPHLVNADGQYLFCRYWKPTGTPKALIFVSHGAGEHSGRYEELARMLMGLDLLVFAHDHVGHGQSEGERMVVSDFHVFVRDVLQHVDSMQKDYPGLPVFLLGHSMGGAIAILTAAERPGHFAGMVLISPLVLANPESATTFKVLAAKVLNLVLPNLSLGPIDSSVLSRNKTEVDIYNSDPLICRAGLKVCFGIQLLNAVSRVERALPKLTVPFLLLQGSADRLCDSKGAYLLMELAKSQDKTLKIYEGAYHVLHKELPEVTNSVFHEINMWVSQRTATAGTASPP
Sequence of MAGL (recombinant wild-type) (Q99685 whole entry, species assumed): as above

Consider `CC(C)(C)c1csc(CC2CCN(C(=O)N3CC[C@@H]4OCC(=O)N[C@@H]4C3)CC2)n1` (racemic) [Example 3, rac-(4aR,8aS)-6-[4-[(4-tert-Butylthiazol-2-yl)methyl]piperidine-1-carbonyl]-4,4a,5,7,8,8a-hexahydropyrido[4,3-b][1,4]oxazin-3-one], for which the IC50 in assay [1] is 66 nM.

Consider `O=C1CO[C@H]2CCN(C(=O)N3CCC(Cc4ccc(C(F)(F)F)cc4)CC3)C[C@H]2N1` (racemic) [Example 11, rac-(4aR,8aS)-6-[4-[[4-(Trifluoromethyl)phenyl]methyl]piperidine-1-carbonyl]-4,4a,5,7,8,8a-hexahydropyrido[4,3-b][1,4]oxazin-3-one], for which, in assay [1], the IC50 is 42 nM.

`O=C1CO[C@H]2CCN(C(=O)N3CCN(Cc4ccc(C(F)(F)F)cc4)CC3)C[C@H]2N1` (racemic) [Example 21, rac-(4aR,8aS)-6-(4-(4-(Trifluoromethyl)benzyl)piperazine-1-carbonyl)hexahydro-2H-pyrido[4,3-b][1,4]oxazin-3(4H)-one]: in assay [1], the IC50 is 909 nM.

As for `N#Cc1cc(OC2CN(C(=O)N3CC[C@@H]4OCC(=O)N[C@@H]4C3)C2)ccc1C(F)(F)F` [Example 263, (+)-5-[1-[(4aR,8aS)-3-Oxo-4,4a,5,7,8,8a-hexahydropyrido[4,3-b][1,4]oxazine-6-carbonyl]azetidin-3-yl]oxy-2-(trifluoromethyl)benzonitrile], at MAGL, the midpoint of inhibition, the IC50, lay at 1100 nM.

Take `O=C1CO[C@H]2CCN(C(=O)N3CC(Oc4ccc(Cl)c(Br)c4)C3)C[C@H]2N1` [Example 264]: the IC50 against MAGL was found to be 84 nM.

Regarding `O=C1CO[C@H]2CCN(C(=O)N3CC(Oc4ccc(C(F)(F)F)c(N5CC6(CCC6)C5)c4)C3)C[C@H]2N1` [Example 265, (+)-(4aR,8aS)-6-[3-[3-(2-Azaspiro[3.3]heptan-2-yl)-4-(trifluoromethyl)phenoxy]azetidine-1-carbonyl]-4,4a,5,7,8,8a-hexahydropyrido[4,3-b][1,4]oxazin-3-one], the IC50 on MAGL stood at 6 nM.

For `CC1CN(c2cc(OC3CN(C(=O)N4CC[C@@H]5OCC(=O)N[C@@H]5C4)C3)ccc2C(F)(F)F)C1` [Example 266, (+)-(4aR,8aS)-6-[3-[3-(3-Methylazetidin-l-yl)-4-(trifluoromethyl)phenoxy]azetidine-1-carbonyl]-4,4a,5,7,8,8a-hexahydropyrido[4,3-b][l,4]oxazin-3-one], at MAGL, the concentration for half-maximal inhibition (IC50) came out at 18 nM.

At MAGL, `O=C1CO[C@H]2CCN(C(=O)N3CC(Oc4ccc(C(F)(F)F)c(N5CC(F)(F)C5)c4)C3)C[C@H]2N1` [Example 267, (+)-(4aR,8aS)-6-[3-[3-(3,3-Difluoroazetidin-1-yl)-4-(trifluoromethyl)phenoxy]azetidine-1-carbonyl]-4,4a,5,7,8,8a-hexahydropyrido[4,3-b][l,4]oxazin-3-one] displayed an IC50 of 42 nM.

The compound `CC1(F)CN(c2cc(OC3CN(C(=O)N4CC[C@@H]5OCC(=O)N[C@@H]5C4)C3)ccc2C(F)(F)F)C1` [Example 268, (+)-(4aR,8aS)-6-[3-[3-(3-Fluoro-3-methyl-azetidin-1-yl)-4-(trifluoromethyl)phenoxy]azetidine-1-carbonyl]-4,4a,5,7,8,8a-hexahydropyrido[4,3-b][l,4]oxazin-3-one] had an IC50 on MAGL of 28 nM.

`O=C1CO[C@H]2CCN(C(=O)N3CC(Oc4ccc(C(F)(F)F)c(N5CC6(C5)CC(F)(F)C6)c4)C3)C[C@H]2N1` [Example 269, (+)-(4aR,8aS)-6-[3-[3-(6,6-Difluoro-2-azaspiro[3.3]heptan-2-yl)-4-(trifluoromethyl)phenoxy]azetidine-1-carbonyl]-4,4a,5,7,8,8a-hexahydropyrido[4,3-b][l,4]oxazin-3-one]: at MAGL, the midpoint of inhibition, the IC50, lay at 24 nM.

Take `O=C1CO[C@H]2CCN(C(=O)N3CC(Oc4ccc(C(F)(F)F)c(N5CC6(CCCCO6)C5)c4)C3)C[C@H]2N1` [Example 270, (+)-(4aR,8aS)-6-[3-[3-(5-oxa-2-azaspiro[3.5]nonan-2-yl)-4-(trifluoromethyl)phenoxy]azetidine-1-carbonyl]-4,4a,5,7,8,8a-hexahydropyrido[4,3-b][l,4]oxazin-3-one]: the IC50 against MAGL came out at 61 nM.

Consider `O=C1CO[C@H]2CCN(C(=O)N3CC(Oc4cccc(N5CC6(CCC6)C5)c4Cl)C3)C[C@H]2N1` [Example 271, (+)-(4aR,8aS)-6-[3-[3-(2-Azaspiro[3.3]heptan-2-yl)-2-chloro-phenoxy]azetidine-1-carbonyl]-4,4a,5,7,8,8a-hexahydropyrido[4,3-b][1,4]oxazin-3-one], for which the IC50 at MAGL is 20 nM.

On to `CC1CN(c2cccc(OC3CN(C(=O)N4CC[C@@H]5OCC(=O)N[C@@H]5C4)C3)c2Cl)C1` [Example 272, (+)-(4aR,8aS)-6-[3-[2-Chloro-3-(3-methylazetidin-1-yl)phenoxy]azetidine-1-carbonyl]-4,4a,5,7,8,8a-hexahydropyrido[4,3-b][l,4]oxazin-3-one], for which inhibition against MAGL was half-maximal at 94 nM (IC50).

As to `CC1(F)CN(c2cccc(OC3CN(C(=O)N4CC[C@@H]5OCC(=O)N[C@@H]5C4)C3)c2Cl)C1` [Example 273, (+)-(4aR,8aS)-6-[3-[2-Chloro-3-(3-fluoro-3-methyl-azetidin-1-yl)phenoxy]azetidine-1-carbonyl]-4,4a,5,7,8,8a-hexahydropyrido[4,3-b] [1,4] oxazin-3-one], the IC50 against MAGL came out at 89 nM.

Take `CC(C)(C)OC1CN(c2cccc(OC3CN(C(=O)N4CC[C@@H]5OCC(=O)N[C@@H]5C4)C3)c2Cl)C1` [Example 274, (+)-(4aR,8aS)-6-(3-(3-(3-(tert-Butoxy)azetidin-1-yl)-2-chlorophenoxy)azetidine-1-carbonyl)hexahydro-2H-pyrido[4,3-b][1,4]oxazin-3(4H)-one]: on MAGL, inhibition was half-maximal at 126 nM (IC50).

At MAGL, `O=C1CO[C@H]2CCN(C(=O)N3CC(Oc4cccc(N5CC6(CCCO6)C5)c4Cl)C3)C[C@H]2N1` [Example 275, (+)-(4aR,8aS)-6-[3-[2-Chloro-3-(5-oxa-2-azaspiro[3.4]octan-2-yl)phenoxy]azetidine-1-carbonyl]-4,4a,5,7,8,8a-hexahydropyrido[4,3-b][1,4]oxazin-3-one] returned an IC50 of 32 nM.

On MAGL, `O=C1CO[C@H]2CCN(C(=O)N3CC(Oc4cccc(N5CC6(CCCCO6)C5)c4Cl)C3)C[C@H]2N1` [Example 276, (+)-(4aR,8aS)-6-[3-[2-chloro-3-(5-oxa-2-azaspiro[3.5]nonan-2-yl)phenoxy]azetidine-1-carbonyl]-4,4a,5,7,8,8a-hexahydropyrido[4,3-b][1,4]oxazin-3-one] gave an IC50 of 19 nM.

Compound `O=C1CO[C@H]2CCN(C(=O)N3CC(Oc4cc(Cl)cc(N5CC6(CCC6)C5)c4)C3)C[C@H]2N1` [Example 277, (+)-(4aR,8aS)-6-[3-[3-(2-Azaspiro[3.3]heptan-2-yl)-5-chloro-phenoxy]azetidine-1-carbonyl]-4,4a,5,7,8,8a-hexahydropyrido[4,3-b][1,4]oxazin-3-one] came in with an IC50 on MAGL of 455 nM.

As to `O=C1CO[C@H]2CCN(C(=O)N3CC(Oc4cc(Cl)cc(N5CCCC5)c4)C3)C[C@H]2N1` [Example 278, (+)-(4aR,8aS)-6-[3-(3-Chloro-5-pyrrolidin-l-yl-phenoxy)azetidine-1-carbonyl]-4,4a,5,7,8,8a-hexahydropyrido[4,3-b][1,4]oxazin-3-one], the IC50 on MAGL came out at 211 nM.

Turning to `O=C1CO[C@H]2CCN(C(=O)N3CC(OCc4ccc(F)cc4C(F)(F)F)C3)C[C@H]2N1` [Example 280], on MAGL, the IC50 amounted to 41 nM.

Compound `O=C1CO[C@H]2CCN(C(=O)N3CC(CC(F)(F)c4ccc(C(F)(F)F)cc4)C3)C[C@H]2N1` [Example 281] registered an IC50 at MAGL of 35 nM.

In the case of `O=C1CO[C@H]2CCN(C(=O)N3CC(Cc4cccc(OC(F)(F)F)c4)C3)C[C@H]2N1` [Example 282], the IC50 against MAGL is 136 nM.

Take `O=C1CO[C@H]2CCN(C(=O)N3CCC(Oc4cc(C(F)(F)F)ccc4F)C3)C[C@H]2N1` (stereo partly drawn) [Example 283]: on MAGL, the IC50 stood at 179 nM.

As to `O=C1CO[C@H]2CCN(C(=O)N3CCC(Oc4cc(C(F)(F)F)ccc4Cl)C3)C[C@H]2N1` (stereo partly drawn) [Example 284], at MAGL, the IC50 amounted to 72 nM.

With `O=C1CO[C@H]2CCN(C(=O)N3CCC(Oc4cc(C(F)(F)F)ccc4F)C3)C[C@H]2N1` (stereo partly drawn) [Example 285], the IC50 on MAGL came out at 2600 nM.

For the compound `O=C1CO[C@H]2CCN(C(=O)N3CCC(Oc4cc(C(F)(F)F)ccc4F)C3)C[C@H]2N1` (stereo partly drawn) [Example 286], at MAGL, it took 128 nM to reach half-maximal inhibition (IC50).

With `Cc1ccc(/C=C/C2CN(C(=O)N3CC[C@@H]4OCC(=O)N[C@@H]4C3)C2)c(F)c1` [Example 287], the IC50 against MAGL is 6 nM.

In the case of `O=C1CO[C@H]2CCN(C(=O)N3CC(OCc4ccc(OC(F)(F)F)c(F)c4)C3)C[C@H]2N1` [Example 288], the IC50 on MAGL is 53 nM.

For `O=C1CO[C@H]2CCN(C(=O)N3CC(/C=C/c4c(F)cccc4C(F)(F)F)C3)C[C@H]2N1` [Example 289], on MAGL, the IC50 stood at 3 nM.

In turn, `Cc1cccc(COC2CN(C(=O)N3CC[C@@H]4OCC(=O)N[C@@H]4C3)C2)c1C` [Example 290] registered a concentration for half-maximal inhibition (IC50) on MAGL of 44 nM.

Take `Cc1ccc(COC2CN(C(=O)N3CC[C@@H]4OCC(=O)N[C@@H]4C3)C2)c(C)c1` [Example 291]: inhibition against MAGL was half-maximal at 28 nM (IC50).

Compound `Cc1cc(C(F)(F)F)ccc1COC1CN(C(=O)N2CC[C@@H]3OCC(=O)N[C@@H]3C2)C1` [Example 292] gave an IC50 against MAGL of 5 nM.

Compound `Cc1ccc(COC2CN(C(=O)N3CC[C@@H]4OCC(=O)N[C@@H]4C3)C2)cc1C(F)(F)F` [Example 294] showed an IC50 against MAGL of 3000 nM.

For orientation: IC50 means the concentration at which inhibition is half-maximal.
